How the values were obtained:
sGC α1/β1 heterodimer = molecular target: T1, sGC α1/β1 heterodimer (Homo sapiens, UniProt Q02108+Q02153); assay: Cell-Based sGC Functional Assay (CASA Assay), cGMP by HTRF in CHO-K1/sGC cells; details: for Emax: CHO-K1, percent activation relative to maximum cGMP production of Compound A (= 100%), read-out: % Act.; for EC50: cGMP production, 1 hr at 37° C., 4P fit, presence or absence of 1 μM DETA-NO not given, read-out: IP (nM) (inflection point)
T1 construct: expressed in transfected cells; host or cells: CHO-K1 (clone #7, CHO-K1/sGC)
T1 sequence (Q02108 1-690): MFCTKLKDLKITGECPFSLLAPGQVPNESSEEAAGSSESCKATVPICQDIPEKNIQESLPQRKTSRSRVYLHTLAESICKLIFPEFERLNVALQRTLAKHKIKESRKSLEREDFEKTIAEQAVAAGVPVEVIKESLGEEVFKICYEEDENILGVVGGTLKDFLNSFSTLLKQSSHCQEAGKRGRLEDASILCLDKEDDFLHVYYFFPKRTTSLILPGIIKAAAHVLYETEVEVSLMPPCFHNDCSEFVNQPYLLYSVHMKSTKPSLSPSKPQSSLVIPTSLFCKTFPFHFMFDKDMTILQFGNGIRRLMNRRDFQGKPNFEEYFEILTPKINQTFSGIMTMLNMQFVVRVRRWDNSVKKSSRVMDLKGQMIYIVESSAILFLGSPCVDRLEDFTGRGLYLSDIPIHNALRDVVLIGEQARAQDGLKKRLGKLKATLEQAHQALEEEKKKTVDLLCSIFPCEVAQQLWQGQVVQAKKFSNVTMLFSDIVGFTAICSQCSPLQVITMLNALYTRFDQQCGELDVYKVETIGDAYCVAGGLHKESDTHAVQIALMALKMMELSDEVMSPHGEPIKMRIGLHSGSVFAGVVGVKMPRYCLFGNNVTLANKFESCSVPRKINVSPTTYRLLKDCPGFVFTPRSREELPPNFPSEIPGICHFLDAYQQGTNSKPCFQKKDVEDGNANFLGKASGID
T1 sequence (Q02153 1-619): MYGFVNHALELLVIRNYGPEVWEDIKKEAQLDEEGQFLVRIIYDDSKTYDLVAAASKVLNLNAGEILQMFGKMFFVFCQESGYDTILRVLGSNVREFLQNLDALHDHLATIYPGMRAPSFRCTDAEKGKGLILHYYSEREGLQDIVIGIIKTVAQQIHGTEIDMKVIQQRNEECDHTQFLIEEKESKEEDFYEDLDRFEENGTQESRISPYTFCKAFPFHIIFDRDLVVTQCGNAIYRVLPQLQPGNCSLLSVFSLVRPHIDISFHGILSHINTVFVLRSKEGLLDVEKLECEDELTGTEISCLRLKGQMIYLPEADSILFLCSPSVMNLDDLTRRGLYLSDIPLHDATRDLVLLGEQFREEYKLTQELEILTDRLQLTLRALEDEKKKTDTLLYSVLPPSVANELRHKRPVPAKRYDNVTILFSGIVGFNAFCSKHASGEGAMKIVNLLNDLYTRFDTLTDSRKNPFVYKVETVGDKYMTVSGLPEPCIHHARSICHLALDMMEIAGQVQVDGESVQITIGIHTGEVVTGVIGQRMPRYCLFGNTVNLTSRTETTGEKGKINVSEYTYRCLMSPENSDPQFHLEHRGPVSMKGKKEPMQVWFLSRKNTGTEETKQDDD
How it was run: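 CHO-K1 cells stably expressing human sGC α1/β1, in EBSS buffer with 5 mM MgCl2, 10 mM HEPES, 0.05% BSA and 0.5 mM IBMX, incubated with compound (2.5% DMSO) ± 1 μM DETA-NO, 1 h, 37 °C. Intracellular cGMP read by HTRF; activity as % of reference activator maximum, IP from 4-parameter fit.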

[1] = test system: Spontaneously hypertensive rats (SHR); assay: Acute Efficacy in Spontaneously Hypertensive Rats (SHR), telemetry blood pressure; assay type: in vivo, rat; details: SHR male
How it was run: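 Male SHR with aortic telemetry, conscious and freely moving, recovered 14 days post-surgery. Single oral gavage; vehicle 10% transcutol/20% Cremophor/70% water dosed the day before as baseline. Hourly blood pressure averages minus baseline; maximum peak systolic decrease reported at a stated oral dose (mpk).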

SMILES	Emax (sGC α1/β1 heterodimer)	EC50 (sGC α1/β1 heterodimer)	Cat. (maximum peak decrease of systolic blood pressure (SBP) in SHR) ([1]; single oral dose 0.3 mpk P.O.)	Cat. (maximum peak decrease of systolic blood pressure (SBP) in SHR) ([1]; single oral dose 1.0 mpk P.O.)
CC1(c2ccc(F)cc2)C(=O)Nc2nc(-c3cn4ccnc4c(CCC(F)(F)C(F)(F)F)n3)ncc21 (stereo not drawn) [Example 1A, 5-(4-Fluorophenyl)-5-methyl-2-(8-(3,3,4,4,4-pentafluorobutyl)imidazo[1,2-a]pyrazin-6-yl)-5H-pyrrolo[2,3-d]pyrimidin-6(7H)-one]	121%	228 nM		B (Category B=SBP in SHRs 20-40 mmHg)
CC1(c2ccc(Cl)cn2)C(=O)Nc2nc(-c3cn4ccnc4c(CCCC(F)(F)F)n3)nc(O)c21 (stereo not drawn) [Example 28A, 5-(5-chloropyridin-2-yl)-4-hydroxy-5-methyl-2-(8-(4,4,4-trifluorobutyl)imidazo[1,2-a]pyrazin-6-yl)-5H-pyrrolo[2,3-d]pyrimidin-6(7H)-one]	95%	245 nM		A (Category A=SBP in SHRs<20 mmHg)
O=C1Nc2nc(-c3cn4ccnc4c(CCCC(F)(F)F)n3)ncc2C1(c1ccc(F)c(F)c1)C1CC1 (stereo not drawn) [Example 44A, 5-cyclopropyl-5-(3,4-difluorophenyl)-2-(8-(4,4,4-trifluorobutyl)imidazo[1,2-a]pyrazin-6-yl)-5H-pyrrolo[2,3-d]pyrimidin-6(7H)-one]	150%	114 nM		B (Category B=SBP in SHRs 20-40 mmHg)

More lines, in order of falling EC50 (sGC α1/β1 heterodimer), values ahead:

Emax (sGC α1/β1 heterodimer)	EC50 (sGC α1/β1 heterodimer)	SMILES	Cat. (maximum peak decrease of systolic blood pressure (SBP) in SHR) ([1]; single oral dose 0.3 mpk P.O.)	Cat. (maximum peak decrease of systolic blood pressure (SBP) in SHR) ([1]; single oral dose 1.0 mpk P.O.)
101%	92 nM	CCCc1nc(-c2ncc3c(n2)NC(=O)C3(C)c2ccc(Cl)cc2)cn2ccnc12 (stereo not drawn) [Example 39A, 5-(4-chlorophenyl)-5-methyl-2-(8-propylimidazo[1,2-a]pyrazin-6-yl)-5H-pyrrolo[2,3-d]pyrimidin-6(7H)-one]		A (Category A=SBP in SHRs<20 mmHg)
124%	4 nM	CC1(c2ccc(Cl)cn2)C(=O)Nc2nc(-c3cn4ccnc4c(Cc4ccc(F)cc4)n3)ncc21 (stereo not drawn) [Example 42A, 5-(5-chloropyridin-2-yl)-2-(8-(4-fluorobenzyl)imidazo[1,2-a]pyrazin-6-yl)-5-methyl-5H-pyrrolo[2,3-d]pyrimidin-6(7H)-one]	B (Category B=SBP in SHRs 20-40 mmHg)	
